Measurements reported in patent publication US20130310374A1, “Substituted Imidazoquinoline Derivatives” (PIRAMAL ENTERPRISES LIMITED`, priority 2010, published 2013).

Columns and labels:
A2780 = experiment: Cytotoxicity propidium iodide assay, A2780; type: cell-based; settings: for inhibition at 1 µM / IC50 / inhibition at 10 µM: Homo sapiens; for inhibition at 1 µM: read-out: % Inhibition at 1 μM, C1a; for IC50: A2780 (ovarian), 48 hours treatment, read-out: IC50 Values in μM, C1a; for inhibition at 10 µM: A2780, 10 μM (stated in cell), read-out: % Inhibition at 10 μM, C1a
Description: (§1) The assay was designed as in the reference, Anticancer Drugs, 2002, 13, 1-8, the disclosure of which is incorporated herein by reference for the teaching of the assay.
(§2) Cells from cell lines (ATCC) as mentioned in the table given below were seeded at a density of 3000 cells/well in a white opaque 96-well plate. Following incubation at 37° C./5% CO2 for a period of 18-24 hours, the cells were treated with various concentrations (stock solution was prepared in DMSO and subsequent dilutions were made in media as per ATCC guidelines) of the compounds of the present invention for a period of 48 hours. At the end of treatment, the culture medium was discarded, the cells were washed with 1×PBS and 200 μL of […] propidium iodide was added to each well. The plates were frozen at […] overnight. For analysis, the plates were warmed to RT, allowed to thaw and were read in PoleStar fluorimeter with the fluorescence setting. The percentage of viable cells in the non-treated set of wells was considered to be 100 and the percentage viability following treatment was calculated accordingly. IC50 values were calculated from graphs plotted using these percentages. IC50 values for certain compounds of present invention are depicted in Table 1 and % Inhibition of certain compounds of present invention are depicted in Table 2.

PC3 = experiment: Cytotoxicity propidium iodide assay, PC3; type: cell-based, human; settings: for inhibition at 1 µM / IC50 / inhibition at 10 µM: Homo sapiens, PC-3; for inhibition at 1 µM: read-out: % Inhibition at 1 μM, C2a; for IC50: PC3 (prostate), 48 hours treatment, read-out: IC50 Values in μM, C2a; for inhibition at 10 µM: PC3, 10 μM (stated in cell), read-out: % Inhibition at 10 μM, C2a
Description: as §1, §2

Compound | inhibition at 1 µM (A2780; A2780, 1 μM, 48 hours) | inhibition at 1 µM (PC3; PC3, 1 μM, 48 hours) | other results
COc1ccc(-n2c(=O)n(C)c3cnc4ccc(-c5cnc6ccccc6c5)cc4c32)c(C)n1 [Example 41, 1-(6-Methoxy-2-methylpyridin-3-yl)-3-methyl-8-(quinolin-3-yl)-1H-imidazo[4,5-c]quinolin-2(3H)-one] | 80% | 68% | 
Cn1c(=O)n(-c2ccc(C#N)nc2)c2c3cc(-c4cnc(N)c(C(F)(F)F)c4)ccc3ncc21 [Example 45, 5-(8-(6-Amino-5-(trifluoromethyl)pyridin-3-yl)-3-methyl-2-oxo-2,3-dihydro-1H-imidazo[4,5-c]quinolin-1-yl)picolinonitrile] | 52% | 37% | 
Cn1c(=O)n(-c2ccc(C(F)(F)F)nc2)c2c3cc(-c4cccnc4)ccc3ncc21 [Example 53, 3-Methyl-8-(pyridin-3-yl)-1-(6-(trifluoromethyl)pyridin-3-yl)-1H-imidazo[4,5-c]quinolin-2(3H)-one] |  |  | IC50 (A2780): 0.55 µM; IC50 (PC3): 0.75 µM
COc1ccc(-n2c(=O)n(CC#N)c3cnc4ccc(-c5ccc(C(F)(F)F)nc5)cc4c32)c(C)n1 [Example 37, 2-(1-(6-Methoxy-2-methylpyridin-3-yl)-2-oxo-8-(6-(trifluoromethyl)pyridin-3-yl)-1H-imidazo[4,5-c]quinolin-3(2H)-yl)acetonitrile] | 70% | 49.5% | 
Cn1c(=O)n(-c2ccc(Cl)nc2)c2c3cc(-c4cccnc4)ccc3ncc21 [Example 60, 1-(6-Chloropyridin-3-yl)-3-methyl-8-(pyridin-3-yl)-1H-imidazo[4,5-c]quinolin-2(3H)-one] |  |  | IC50 (A2780): 0.68 µM; IC50 (PC3): 0.85 µM
COc1ccc(-n2c(=O)n(C)c3cnc4ccc(-c5ccc(N(C)C)nc5)cc4c32)cn1 [Example 25, 8-(6-(Dimethylamino)pyridin-3-yl)-1-(6-methoxypyridin-3-yl)-3-methyl-1H-imidazo[4,5-c] quinolin-2(3H)-one] | 83.4% | 69% | 
N#CCn1c(=O)n(-c2ccc(C#N)nc2)c2c3cc(-c4cnc5ccccc5c4)ccc3ncc21 [Example 51, 5-(3-(Cyanomethyl)-2-oxo-8-(quinolin-3-yl)-2,3-dihydro-1H-imidazo[4,5-c]quinolin-1-yl)picolinonitrile] | 73% | 41% | 
Cn1c(=O)n(CCN2CCOCC2)c2c3cc(-c4cnc(N)c(C(F)(F)F)c4)ccc3ncc21 [Example 69, 8-(6-Amino-5-(trifluoromethyl)pyridin-3-yl)-3-methyl-1-(2-morpholinoethyl)-1H-imidazo[4,5-c]quinolin-2(3H)-one] |  |  | IC50 (A2780): 0.022 µM; IC50 (PC3): 0.07 µM
COc1ccc(-n2c(=O)n(CC#N)c3cnc4ccc(-c5cnc6ccccc6c5)cc4c32)cn1 [Example 24, 2-(1-(6-Methoxypyridin-3-yl)-2-oxo-8-(quinolin-3-yl)-1H-imidazo[4,5-c]quinolin-3(2H)-yl)acetonitrile] | 66% | 39% | 
COc1ccc(-n2c(=O)n(CC#N)c3cnc4ccc(-c5cccnc5)cc4c32)cn1 [Example 21, 2-(1-(6-Methoxypyridin-3-yl)-2-oxo-8-(pyridin-3-yl)-1H-imidazo[4,5-c]quinolin-3(2H)-yl)acetonitrile] | 38% | 27% | 
Cn1c(=O)n(-c2ccc(C(C)(C)C#N)nc2)c2c3cc(-c4cncc5ccccc45)ccc3ncc21 [Example 6, 2-(5-(8-(Isoquinolin-4-yl)-3-methyl-2-oxo-2,3-dihydro-1H-imidazo[4,5-c]quinolin-1-yl)pyridin-2-yl)-2-methylpropanenitrile] | 85.3% | 69.5% | 
CCOc1ccc(-n2c(=O)n(C)c3cnc4ccc(-c5cnc(N)c(C(F)(F)F)c5)cc4c32)cn1 [Example 30, 8-(6-Amino-5-(trifluoromethyl)pyridin-3-yl)-1-(6-ethoxypyridin-3-yl)-3-methyl-1H-imidazo[4,5-c]quinolin-2(3H)-one] | 94% | 71% | 
Cn1c(=O)n(-c2ccc(C(C)(C)C#N)nc2)c2c3cc(-c4cncc(C(F)(F)F)c4)ccc3ncc21 [Example 4, 2-Methyl-2-(5-(3-methyl-2-oxo-8-(5-(trifluoromethyl)pyridin-3-yl)-2,3-dihydro-1H-imidazo[4,5-c]quinolin-1-yl)pyridin-2-yl)propanenitrile] | 89.2% | 72.6% | 
COc1ccc(-c2ccc3ncc4c(c3c2)n(-c2ccc(C#N)nc2)c(=O)n4C)cn1 [Example 48, 5-(8-(6-Methoxypyridin-3-yl)-3-methyl-2-oxo-2,3-dihydro-1H-imidazo[4,5-c]quinolin-1-yl)picolinonitrile] |  |  | inhibition at 10 µM (A2780; 48 hours): 40 to 60%; inhibition at 10 µM (PC3; 48 hours): 40 to 60%
Cn1c(=O)n(-c2ccc(C#N)nc2)c2c3cc(-c4cccnc4F)ccc3ncc21 [Example 46, 5-(8-(2-Fluoropyridin-3-yl)-3-methyl-2-oxo-2,3-dihydro-1H-imidazo[4,5-c]quinolin-1-yl)picolinonitrile] | 34% | 27% | 
N#CCn1c(=O)n(-c2ccc(C#N)nc2)c2c3cc(-c4cccnc4)ccc3ncc21 [Example 42, 5-(3-(Cyanomethyl)-2-oxo-8-(pyridin-3-yl)-2,3-dihydro-1H-imidazo[4,5-c]quinolin-1-yl)picolinonitrile] | 60 to 80% | 60 to 80% | 
COc1ccc(-n2c(=O)n(C)c3cnc4ccc(-c5cncc(C(F)(F)F)c5)cc4c32)c(C)n1 [Example 39, 1-(6-Methoxy-2-methylpyridin-3-yl)-3-methyl-8-(5-(trifluoromethyl)pyridin-3-yl)-1H-imidazo[4,5-c]quinolin-2(3H)-one] | 83.4% | 68.8% | 
Cn1c(=O)n(-c2ccc(C(F)(F)F)nc2)c2c3cc(-c4ccc(C(F)(F)F)nc4)ccc3ncc21 [Example 56, 3-Methyl-1,8-bis(6-(trifluoromethyl)pyridin-3-yl)-1H-imidazo [4,5-c]quinolin-2(3H)-one] | 57% | 32% | 
COc1ccc(-n2c(=O)n(C)c3cnc4ccc(-c5cncc(C(F)(F)F)c5)cc4c32)cn1 [Example 22, 1-(6-Methoxypyridin-3-yl)-3-methyl-8-(5-(trifluoromethyl)pyridin-3-yl)-1H-imidazo[4,5-c] quinolin-2(3H)-one] | 83.1% | 67.8% | 
COc1ccc(-n2c(=O)n(C)c3cnc4ccc(-c5cnc(N)c(C(F)(F)F)c5)cc4c32)c(C)n1 [Example 38, 8-(6-Amino-5-(trifluoromethyl)pyridin-3-yl)-1-(6-methoxy-2-methylpyridin-3-yl)-3-methyl-1H-imidazo[4,5-c]quinolin-2(3H)-one] |  |  | IC50 (A2780): < 0.005 µM; IC50 (PC3): 0.0078 µM
CC(C#N)n1c(=O)n(-c2ccc(C#N)nc2)c2c3cc(-c4cccnc4)ccc3ncc21 (centres unmarked) [Example 43, 5-(3-(1-Cyanoethyl)-2-oxo-8-(pyridin-3-yl)-2,3-dihydro-1H-imidazo[4,5-c]quinolin-1-yl)picolinonitrile] | 8% | 13% | 
CC(C)(C#N)c1ccc(-n2c(=O)n(CC#N)c3cnc4ccc(-c5cccnc5)cc4c32)cn1 [Example 14, 2-(5-(3-(Cyanomethyl)-2-oxo-8-(pyridin-3-yl)-2,3-dihydro-1H-imidazo[4,5-c]quinolin-1-yl)pyridin-2-yl)-2-methylpropanenitrile] |  |  | IC50 (A2780): 0.4 µM; IC50 (PC3): 0.42 µM
Cn1c(=O)n(-c2ccc(C#N)nc2)c2c3cc(-c4ccc(F)nc4)ccc3ncc21 [Example 47, 5-(8-(6-Fluoropyridin-3-yl)-3-methyl-2-oxo-2,3-dihydro-1H-imidazo[4,5-c]quinolin-1-yl)picolinonitrile] |  |  | inhibition at 10 µM (A2780; 48 hours): 40 to 60%; inhibition at 10 µM (PC3; 48 hours): 40 to 60%
6-Chloro-5-(3-methyl-2-oxo-8-(quinolin-3-yl)-2,3-dihydro-1H-imidazo[4,5-c]quinolin-1-yl)picolinonitrile [Example 58] |  |  | % Inhibition at 1 μM, C1a (A2780; A2780, 1 μM, 48 hours): 91%; % Inhibition at 1 μM, C2a (PC3; PC3, 1 μM, 48 hours): 60%
CC(C#N)n1c(=O)n(-c2ccc(C#N)nc2)c2c3cc(-c4cnc5ccccc5c4)ccc3ncc21 (centres unmarked) [Example 52, 5-(3-(1-Cyanoethyl)-2-oxo-8-(quinolin-3-yl)-2,3-dihydro-1H-imidazo[4,5-c]quinolin-1-yl)picolinonitrile] | 36% | 12% | 
